Measured values taken from patent publication US4256742A, “Antidepressant oxime ethers of dibenzocycloheptaziridones” (E. I. Du Pont de Nemours and Company, priority 1979, dated 1981).
Where a name gives a salt, the structure may show the parent alone. Read-outs that look alike come from different tables or passages of the source.

Experiments:
[1] = system: tetrabenazine-induced sedation and depression; assay: Antitetrabenazine test: prevention of tetrabenazine-induced sedation and ptosis in mice; assay type: in vivo, mice (Carworth CF1 S female); conditions: tetrabenazine 32 mg/kg i.p. 30 min later, examined 1 h after antagonist; for ED50: Mus musculus
Method: This mouse test is predictive of human antidepressant response (Everett, "The Dopa Response Petentiation Test and Its Use in Screening for Antidepressant Drugs", pp. 164-167 in "Antidepressant Drugs" [Proceedings of the First International Symposium], S. Garattini and M. N. G. Dukes, eds. 1967).
Groups of 10 Carworth CF1 S female mice, 18-21 g each, were fasted 1.5 hours and were intubated with antagonist compounds at oral doses of 0, 0.33, 1, 3, 9, 27, and 81 mg/kg in 0.20 ml of 1% Methocel. The mice were challenged 30 minutes later with tetrabenazine (as the methane-sulfonate),32 mg/kg intraperitoneally (dissolved in 0.20 ml 0.05 M KCl at pH 2.0). One hour after antagonist (30 minutes after tetrabenazine), the mice were examined for signs of exploratory activity and ptosis (eyelid closure). Normal exploratory activity (relief from sedation) was recorded when a mouse lifted by the tail from a group of 10 in a testing box and placed on a stainless steel testing box lid (12.5"×8" with 0.33" mesh) either turned its head horizontally 30° in both directions or moved to the edge of the screen within 10 seconds after being placed on the screen. Relief from ptosis was recorded when exactly two seconds after placing the mouse facing the observer, lid closure was less than 50% in both eyes. Table 1 gives the results in mg/kg for examples of the invention and for the established standard antidepressant, amitriptyline.

[2] = Water solubility of the salts; assay type: physicochemical; conditions: salt as isolated
[3] = po, 1 h, read-out: ED50 in antitetrabenazine test, blockade of exploratory loss (Explor.), oral, female mice, normal exploratory activity (relief from sedation)
[4] = po, 1 h, read-out: ED50 in antitetrabenazine test, blockade of ptosis, oral, female mice, relief from ptosis
[5] = oral, female mice, normal exploratory activity (relief from sedation), read-out: ED50 in antitetrabenazine test, blockade of exploratory loss (Explor.)
[6] = oral, female mice, relief from ptosis, read-out: ED50 in antitetrabenazine test, blockade of ptosis

**Q.** For `CN(C)CCCON=C1c2ccccc2C2NC2c2ccccc21` (stereo not shown) [Example 9], which ED50 [1, 3] is on record?
**A.** 32 mg/kg

**Q.** What about the ED50 [1, 4] of the same compound?
**A.** 18 mg/kg

**Q.** For `NCCON=C1c2ccccc2C2NC2c2ccccc21` (stereo not shown) [Example 19], which “water solubility (in words)” value [2] is on record?
**A.** Water Soluble

**Q.** And the “ED50 in antitetrabenazine test, blockade of exploratory loss (Explor.)” value (shortened to “ED50 … of exploratory loss (Explor.)”) ([1]; oral, female mice, normal exploratory activity (relief from sedation), listed as R^2=CH2 CH2 NH2, R^1=H, Z=drawing 41, 60 min)?
**A.** 14. mg/kg

**Q.** What about the “ED50 in antitetrabenazine test, blockade of ptosis” value (shortened to “ED50 … of ptosis”) ([1]; oral, female mice, relief from ptosis, listed as R^2=CH2 CH2 NH2, R^1=H, Z=drawing 41, 60 min) of the same compound?
**A.** 3.4 mg/kg

**Q.** Which ED50 [1, 3] does the source give for `c1ccc2c(c1)C(=NOCCN1CCCCC1)c1ccccc1C1NC21` (stereo not shown) [R^2=drawing 45; R^1=H; Z=--] here?
**A.** > 81 mg/kg

**Q.** And the ED50 [1, 4]?
**A.** 8.3 mg/kg

**Q.** Which ED50 [1, 4] does the source give for `CN(C)CCON=C1c2ccccc2C2C(c3ccccc31)N2C` (stereo not shown) [Example 3, O-[2-(Dimethylamino)ethyl]oxime of 1a,10b-Dihydrodibenzo-[3,4,6,7]cyclohept[1,2-b]-N-methylazirin-6(1H)-one] here?
**A.** 0.65 mg/kg

**Q.** What about the “ED50 … of exploratory loss (Explor.)” value ([1]; oral, female mice, normal exploratory activity (relief from sedation), listed as R^2=CH2 CH2 N(CH3)2, R^1=CH3, Z=--, 60 min) of the same compound?
**A.** 0.93 mg/kg

**Q.** Which ED50 [1, 3] does the source give for `CN(C)CCON=C1c2ccccc2C2C(c3ccccc31)N2CC1CC1` (stereo not shown) [Example 21] here?
**A.** 11.8 mg/kg

**Q.** And the ED50 [1, 4]?
**A.** 10.8 mg/kg

**Q.** Which “water solubility (in words)” value [2] does the source give for `CN(C)CCON=C1c2ccccc2C2C(c3ccccc31)N2C` (stereo not shown) [Example 16, Tartaric acid Salt of O-[2-(dimethylamino)ethyl]oxime of 1a, 10b-dihydrodibenzo[3,4,6,7]cyclohept[1,2-b]-N-methylazirin-6(1H)-one] here?
**A.** watersoluble

**Q.** What about the “ED50 … of exploratory loss (Explor.)” value ([1]; oral, female mice, normal exploratory activity (relief from sedation), listed as R^2=CH2 CH2 N(CH3)2, R^1=CH3, Z=. Tartrate, 60 min) of the same compound?
**A.** 2.7 mg/kg

**Q.** What about the “ED50 … of ptosis” value ([1]; oral, female mice, relief from ptosis, listed as R^2=CH2 CH2 N(CH3)2, R^1=CH3, Z=. Tartrate, 60 min) of the same compound?
**A.** 0.93 mg/kg

**Q.** For `CNCCON=C1c2ccccc2C2NC2c2ccccc21` (stereo not shown) [Example 8], which “ED50 … of exploratory loss (Explor.)” value ([1]; oral, female mice, normal exploratory activity (relief from sedation), listed as R^2=CH2 CH2 NHCH3, R^1=H, Z=--, 60 min) is on record?
**A.** 1.9 mg/kg

**Q.** What about the “ED50 … of ptosis” value ([1]; oral, female mice, relief from ptosis, listed as R^2=CH2 CH2 NHCH3, R^1=H, Z=--, 60 min) of the same compound?
**A.** 0.57 mg/kg

**Q.** Which “ED50 … of exploratory loss (Explor.)” value ([1]; oral, female mice, normal exploratory activity (relief from sedation), listed as R^2=CH2 CH2 N(CH3)2, R^1=H, Z=--, 60 min) does the source give for `CN(C)CCON=C1c2ccccc2C2NC2c2ccccc21` (stereo not shown) [Example 2, O-[2-(Dimethylamino)ethyl]oxime of 1a,10b-dihydrodibenzo[3,4,6,7]cyclohept[1,2-b]azirin-6(1H)-one] here?
**A.** 1.1 mg/kg

**Q.** And the “ED50 … of ptosis” value ([1]; oral, female mice, relief from ptosis, listed as R^2=CH2 CH2 N(CH3)2, R^1=H, Z=--, 60 min)?
**A.** 0.65 mg/kg

**Q.** What does the source list for `CN(C)CCON=C1c2ccccc2C2C(c3ccccc31)N2C(=O)c1ccccc1` (stereo not shown) [R^2=CH2 CH2 N(CH3)2; R^1=drawing 44; Z=--]?
**A.** ED50 [1, 5]: 5.5 mg/kg; ED50 [1, 6]: 5.2 mg/kg

**Q.** With `CN(C)CCON=C1c2ccccc2C2C(c3ccccc31)N2CC1CCC1` (stereo not shown) [Example 22] as the compound, how does the ED50 [1, 3] read?
**A.** 16 mg/kg

**Q.** And the ED50 [1, 4]?
**A.** 10.8 mg/kg

**Q.** What does the source list for `CC(=O)N1C2c3ccccc3C(=NOCCN(C)C)c3ccccc3C21` (stereo not shown) [R^2=CH2 CH2 N(CH3)2; R^1=drawing 43; Z=--]?
**A.** ED50 [1, 5]: 19 mg/kg; ED50 [1, 6]: 13 mg/kg

**Q.** For `CNCCON=C1c2ccccc2C2NC2c2ccccc21` (stereo not shown) [Example 20], which “water solubility (in words)” value [2] is on record?
**A.** Water Soluble

**Q.** What about the “ED50 … of exploratory loss (Explor.)” value ([1]; oral, female mice, normal exploratory activity (relief from sedation), listed as R^2=CH2 CH2 NHCH3, R^1=H, Z=drawing 42, 60 min) of the same compound?
**A.** 6.2 mg/kg

**Q.** And the “ED50 … of ptosis” value ([1]; oral, female mice, relief from ptosis, listed as R^2=CH2 CH2 NHCH3, R^1=H, Z=drawing 42, 60 min)?
**A.** 1.3 mg/kg

**Q.** With `NCCON=C1c2ccccc2C2NC2c2ccccc21` (stereo not shown) [Example 7] as the compound, how does the “ED50 … of exploratory loss (Explor.)” value ([1]; oral, female mice, normal exploratory activity (relief from sedation), listed as R^2=CH2 CH2 NH2, R^1=H, Z=--, 60 min) read?
**A.** 6.6 mg/kg

**Q.** And the “ED50 … of ptosis” value ([1]; oral, female mice, relief from ptosis, listed as R^2=CH2 CH2 NH2, R^1=H, Z=--, 60 min)?
**A.** 1.3 mg/kg

**Q.** For `CN(C)CCC=C1c2ccccc2CCc2ccccc21` [AMTRIPTYLINE, amitriptyline, reference compound], which ED50 [1, 5] is on record?
**A.** 2.6 mg/kg

**Q.** And the ED50 [1, 6]?
**A.** 1.2 mg/kg

**Q.** What does the source list for `CN(C)CCON=C1c2ccccc2C2NC2c2ccccc21` (stereo not shown) [Example 17]?
**A.** water solubility (in words) [2]: Water Soluble; ED50 in antitetrabenazine test, blockade of exploratory loss (Explor.) ([1]; oral, female mice, normal exploratory activity (relief from sedation), listed as R^2=CH2 CH2 N(CH3)2, R^1=H, Z=. Tartrate, 60 min): 0.57 mg/kg; ED50 in antitetrabenazine test, blockade of ptosis ([1]; oral, female mice, relief from ptosis, listed as R^2=CH2 CH2 N(CH3)2, R^1=H, Z=. Tartrate, 60 min): 0.33 mg/kg

**Q.** Which ED50 [1, 3] does the source give for `CCCCNCCON=C1c2ccccc2C2NC2c2ccccc21` (stereo not shown) [Example 15] here?
**A.** > 81 mg/kg

**Q.** What about the ED50 [1, 4] of the same compound?
**A.** 13.3 mg/kg

**Q.** With `c1ccc2c(c1)C(=NOCCN1CCOCC1)c1ccccc1C1NC21` (stereo not shown) [R^2=drawing 46; R^1=H; Z=--] as the compound, how does the ED50 [1, 3] read?
**A.** 16 mg/kg

**Q.** And the ED50 [1, 4]?
**A.** 5.2 mg/kg

**Q.** For `CN(C)CCON=C1c2ccccc2C2NC2c2ccccc21` (stereo not shown) [Example 18], which “water solubility (in words)” value [2] is on record?
**A.** Water Soluble

**Q.** What about the “ED50 … of exploratory loss (Explor.)” value ([1]; oral, female mice, normal exploratory activity (relief from sedation), listed as R^2=CH2 CH2 N(CH3)2, R^1=H, Z=. HCl, 60 min) of the same compound?
**A.** 2.2 mg/kg

**Q.** What about the “ED50 … of ptosis” value ([1]; oral, female mice, relief from ptosis, listed as R^2=CH2 CH2 N(CH3)2, R^1=H, Z=. HCl, 60 min) of the same compound?
**A.** 1.0 mg/kg

**Q.** For `CCNCCON=C1c2ccccc2C2NC2c2ccccc21` (stereo not shown) [Example 14], which ED50 [1, 3] is on record?
**A.** 9 mg/kg

**Q.** What about the ED50 [1, 4] of the same compound?
**A.** 4.3 mg/kg
